Measurements from ChEMBL document CHEMBL1201862, “PubChem BioAssay data set” (2004).
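Interpolation was linear, between the two tested concentrations surrounding the appropriate level; five concentrations were tested over 48 hours in 96-well plates. GI50 marks 50% less growth.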 The source made the active and inactive calls. Rule as the data show it: active = GI50 up to about 1.1 µM and inactive = higher.

Legend:
Assay in all cases: growth of human tumour cells (NCI), 48 h
[1] = test system: HL-60
[2] = test system: Malme-3M
[3] = test system: HOP-92
[4] = test system: NCI-H23
[5] = test system: SF-539
[6] = test system: SK-MEL-5
[7] = test system: 786-0
[8] = test system: SW-620
[9] = test system: CCRF-CEM
[10] = test system: NCI-H460
[11] = test system: ACHN
[12] = test system: SK-MEL-28
[13] = test system: KM12
[14] = test system: LOX IMVI
[15] = test system: SF-268
[16] = test system: TK-10
[17] = test system: DU-145
[18] = test system: PC-3
[19] = test system: Hs-578T
[20] = test system: T47D
[21] = test system: UACC-62
[22] = test system: SK-MEL-2
[23] = test system: MDA-MB-435
[24] = test system: HT-29
[25] = test system: IGROV-1
[26] = test system: OVCAR-8
[27] = test system: MDA-MB-231
[28] = test system: M14
[29] = test system: SK-OV-3
[30] = test system: SNB-19
[31] = test system: SN12C
[32] = test system: OVCAR-5
[33] = test system: COLO 205
[34] = test system: OVCAR-4
[35] = test system: HCC 2998
[36] = test system: SR
[37] = test system: NCI-H522
[38] = test system: MOLT-4
[39] = test system: UACC-257
[40] = test system: U-251
[41] = test system: CAKI-1
[42] = test system: RPMI-8226
[43] = test system: NCI/ADR-RES
[44] = test system: A498
[45] = test system: HCT-15
[46] = test system: SNB-75
[47] = test system: K562
[48] = test system: RXF 393
[49] = test system: HCT-116
[50] = test system: UO-31
[51] = test system: MDA-N
[52] = test system: SF-295
[53] = test system: A549
[54] = test system: EKVX
[55] = test system: HOP-62
[56] = test system: MCF7
[57] = test system: OVCAR-3

## COc1ccc2cc3[n+](cc2c1OC)CCc1cc2c(cc1-3)OCO2
[1]
  GI50: 18.2 µM (inactive)
[2]
  GI50: 7.6 µM (inactive)
[3]
  GI50: 24.5 µM (inactive)
[4]
  GI50: 7.93 µM (inactive)
[5]
  GI50: 52.2 µM (inactive)
[6]
  GI50: 4.78 µM (inactive)
[7]
  GI50: 45 µM (inactive)
[8]
  GI50: 55.3 µM (inactive)
[9]
  GI50: 18.4 µM (inactive)
[10]
  GI50: 14.9 µM (inactive)
[11]
  GI50: > 100 µM (inactive)
[12]
  GI50: 14.7 µM (inactive)
[13]
  GI50: 6.11 µM (inactive)
[14]
  GI50: 59.6 µM (inactive)
[15]
  GI50: 6.75 µM (inactive)
[16]
  GI50: 85.5 µM (inactive)
[17]
  GI50: 35.7 µM (inactive)
[18]
  GI50: 20.3 µM (inactive)
[19]
  GI50: 11.3 µM (inactive)
[20]
  GI50: 5.26 µM (inactive)
[21]
  GI50: 16 µM (inactive)
[22]
  GI50: 23.8 µM (inactive)
[23]
  GI50: 12.6 µM (inactive)
[24]
  GI50: 38.8 µM (inactive)
[25]
  GI50: 55.5 µM (inactive)
[26]
  GI50: 16.8 µM (inactive)
[27]
  GI50: 21.5 µM (inactive)
[28]
  GI50: 39.8 µM (inactive)
[29]
  GI50: 78 µM (inactive)
[30]
  GI50: 5.69 µM (inactive)

## N/N=C(\N)SCc1ccc(N=C=S)cc1
[31]
  GI50: > 100 µM (inactive)
[1]
  GI50: > 100 µM (inactive)
[32]
  GI50: > 100 µM (inactive)
[2]
  GI50: > 100 µM (inactive)
[33]
  GI50: > 100 µM (inactive)
[34]
  GI50: > 100 µM (inactive)
[35]
  GI50: > 100 µM (inactive)
[36]
  GI50: > 100 µM (inactive)
[37]
  GI50: 5.9 µM (inactive)
[3]
  GI50: > 100 µM (inactive)
[4]
  GI50: > 100 µM (inactive)
[5]
  GI50: > 100 µM (inactive)
[6]
  GI50: > 100 µM (inactive)
[7]
  GI50: > 100 µM (inactive)
[8]
  GI50: > 100 µM (inactive)
[38]
  GI50: > 100 µM (inactive)
[9]
  GI50: > 100 µM (inactive)
[10]
  GI50: > 100 µM (inactive)
[11]
  GI50: > 100 µM (inactive)
[12]
  GI50: > 100 µM (inactive)
[39]
  GI50: > 100 µM (inactive)
[13]
  GI50: > 100 µM (inactive)
[40]
  GI50: > 100 µM (inactive)
[14]
  GI50: > 100 µM (inactive)
[15]
  GI50: > 100 µM (inactive)
[16]
  GI50: > 100 µM (inactive)
[41]
  GI50: > 100 µM (inactive)
[42]
  GI50: > 100 µM (inactive)
[43]
  GI50: > 100 µM (inactive)
[44]
  GI50: > 100 µM (inactive)
[17]
  GI50: > 100 µM (inactive)
[45]
  GI50: > 100 µM
[46]
  GI50: > 100 µM (inactive)
[47]
  GI50: > 100 µM (inactive)
[48]
  GI50: > 100 µM (inactive)
[18]
  GI50: > 100 µM (inactive)
[49]
  GI50: > 100 µM (inactive)
[19]
  GI50: > 100 µM (inactive)
[50]
  GI50: > 100 µM (inactive)
[20]
  GI50: > 100 µM (inactive)
[21]
  GI50: > 100 µM (inactive)
[51]
  GI50: > 100 µM (inactive)
[22]
  GI50: > 100 µM (inactive)
[23]
  GI50: > 100 µM (inactive)
[24]
  GI50: > 100 µM (inactive)
[25]
  GI50: > 100 µM (inactive)
[26]
  GI50: > 100 µM (inactive)
[52]
  GI50: > 100 µM (inactive)
[53]
  GI50: > 100 µM (inactive)
[54]
  GI50: > 100 µM (inactive)
[27]
  GI50: > 100 µM (inactive)
[29]
  GI50: > 100 µM (inactive)
[30]
  GI50: > 100 µM (inactive)
[55]
  GI50: > 100 µM (inactive)

## CNC(=O)CCNC(=O)CCC(=O)N(C)C
[31]
  GI50: > 100 µM (inactive)
[32]
  GI50: > 100 µM (inactive)
[2]
  GI50: 15.7 µM (inactive)
[33]
  GI50: > 100 µM (inactive)
[34]
  GI50: > 100 µM (inactive)
[35]
  GI50: > 100 µM (inactive)
[36]
  GI50: 0.951 µM (active)
[37]
  GI50: 2.77 µM (inactive)
[4]
  GI50: > 100 µM (inactive)
[5]
  GI50: > 100 µM (inactive)
[6]
  GI50: > 100 µM (inactive)
[7]
  GI50: > 100 µM (inactive)
[8]
  GI50: > 100 µM (inactive)
[38]
  GI50: > 100 µM (inactive)
[10]
  GI50: > 100 µM (inactive)
[11]
  GI50: > 100 µM (inactive)
[12]
  GI50: > 100 µM (inactive)
[13]
  GI50: > 100 µM (inactive)
[40]
  GI50: > 100 µM (inactive)
[15]
  GI50: > 100 µM (inactive)
[16]
  GI50: > 100 µM (inactive)
[41]
  GI50: > 100 µM (inactive)
[42]
  GI50: > 100 µM (inactive)
[43]
  GI50: > 100 µM (inactive)
[44]
  GI50: > 100 µM (inactive)
[17]
  GI50: > 100 µM (inactive)
[45]
  GI50: > 100 µM
[47]
  GI50: > 100 µM (inactive)
[56]
  GI50: > 100 µM (inactive)
[48]
  GI50: > 100 µM (inactive)
[18]
  GI50: > 100 µM (inactive)
[49]
  GI50: > 100 µM (inactive)
[50]
  GI50: > 100 µM (inactive)
[57]
  GI50: > 100 µM (inactive)
[20]
  GI50: > 100 µM (inactive)
[21]
  GI50: > 100 µM (inactive)
[51]
  GI50: > 100 µM (inactive)
[22]
  GI50: > 100 µM (inactive)
[23]
  GI50: > 100 µM (inactive)
[24]
  GI50: > 100 µM (inactive)
[26]
  GI50: > 100 µM (inactive)
[52]
  GI50: > 100 µM (inactive)
[53]
  GI50: > 100 µM (inactive)
[27]
  GI50: > 100 µM (inactive)
[28]
  GI50: > 100 µM (inactive)
[29]
  GI50: > 100 µM (inactive)
[30]
  GI50: > 100 µM (inactive)
[55]
  GI50: > 100 µM (inactive)

## NS(=O)(=O)c1ccc(/C=C/c2ccc(F)cc2)cc1
[31]
  GI50: 25.8 µM (inactive)
[32]
  GI50: > 100 µM (inactive)
[2]
  GI50: 40.5 µM (inactive)
[33]
  GI50: 24.8 µM (inactive)
[35]
  GI50: 51.8 µM (inactive)
[7]
  GI50: 21.2 µM (inactive)
[8]
  GI50: 17.1 µM (inactive)
[10]
  GI50: 23.5 µM (inactive)
[12]
  GI50: 47.4 µM (inactive)
[39]
  GI50: > 100 µM (inactive)
[16]
  GI50: 21.3 µM (inactive)
[43]
  GI50: 26.3 µM (inactive)
[44]
  GI50: 29.4 µM (inactive)
[17]
  GI50: 50.1 µM (inactive)
[46]
  GI50: 31.6 µM (inactive)
[56]
  GI50: 23.9 µM (inactive)
[48]
  GI50: 15.6 µM (inactive)
[18]
  GI50: 39 µM (inactive)
[49]
  GI50: 16.9 µM (inactive)
[50]
  GI50: 20.7 µM (inactive)
[57]
  GI50: 16.7 µM (inactive)
[20]
  GI50: 14.9 µM (inactive)
[51]
  GI50: 43.5 µM (inactive)
[22]
  GI50: 20.7 µM (inactive)
[52]
  GI50: 28.9 µM (inactive)
[54]
  GI50: 47.3 µM (inactive)
[27]
  GI50: 9.53 µM (inactive)
[28]
  GI50: 79.4 µM (inactive)
[29]
  GI50: 23.8 µM (inactive)
[30]
  GI50: 33.9 µM (inactive)
[55]
  GI50: 34 µM (inactive)
